Measurements reported in patent publication US12617783B2, “Heterocyclic GLP-1R agonists” (BIOMEA FUSION, INC., priority 2024, dated 2026).
Like-named read-outs stand apart in the source and are kept apart here.

Target: T1, human GLP-1R (Homo sapiens, UniProt P43220)
T1 construct: host or cells: HEK293
Assay: GLP-1R cAMP assay (Example B1a, HTRF, 30 min at room temperature)
Type: cell-based
Summary of the method: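 Competitive HTRF read-out of cAMP after 30 min room-temperature stimulation, BETP absent, of human GLP-1R-HEK293 cells (1,000/well) in HEPES buffer with 500 μM IBMX and 0.1% BSA. Activation normalised to GLP-1(7-37) positive control. EC50 from 4-parameter non-linear regression.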

[1] = cAMP accumulation in HEK293 expressing human GLP-1R, no BETP, 30 min room temperature (Method B1a, compounds ID 1-609), Table 1, read-out: EC50
[2] = Table 1d, stereoisomer pairs, read-out: EC50

T1 sequence (P43220 24-463): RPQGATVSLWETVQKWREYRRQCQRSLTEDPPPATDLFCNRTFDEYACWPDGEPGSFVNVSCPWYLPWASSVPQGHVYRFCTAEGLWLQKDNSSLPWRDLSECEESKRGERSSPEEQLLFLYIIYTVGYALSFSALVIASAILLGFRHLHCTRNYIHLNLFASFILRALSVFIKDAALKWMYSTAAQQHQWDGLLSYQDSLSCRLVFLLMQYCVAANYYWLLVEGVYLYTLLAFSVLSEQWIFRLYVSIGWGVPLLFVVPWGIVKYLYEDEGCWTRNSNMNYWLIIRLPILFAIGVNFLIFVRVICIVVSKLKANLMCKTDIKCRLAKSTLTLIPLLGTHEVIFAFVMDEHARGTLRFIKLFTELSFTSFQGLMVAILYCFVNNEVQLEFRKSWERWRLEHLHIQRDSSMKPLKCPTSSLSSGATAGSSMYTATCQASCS

EC50 [1] [nM]	SMILES	other results
1380	Cc1cc(-n2nc3c(c2-n2ccn(-c4ccc5cnncc5c4)c2=O)[C@@H]2CC[C@H](C3)N2C(=O)c2cc3cc([C@H]4CCOC(C)(C)C4)ccc3n2C2(c3noc(=O)[nH]3)CC2)cc(C)c1F [Compound 124, 3-(1-(5-((S)-2,2-dimethyltetrahydro-2H-pyran-4-yl)-2-((4S,7R)-2-(4-fluoro-3,5-dimethylphenyl)-3-(2-oxo-3-(phthalazin-6-yl)-2,3-dihydro-1H-imidazol-1-yl)-2,4,5,6,7,8-hexahydro-4,7-epiminocyclohepta [c]pyrazole-9-carbonyl)-1H-indol-1-yl)cyclopropyl)-1,2,4-oxadiazol-5 (4H)-one]	
> 10000	Cc1cc(-n2nc3c(c2-n2ccn(-c4ccc5c(cnn5C)c4F)c2=O)[C@@H]2CC[C@H](C3)N2C(=O)c2cc3cc([C@H]4CCOC(C)(C)C4)ccc3n2C2(c3noc(=O)[nH]3)CCC2)cc(C)c1F [Compound 134, 3-[1-[5-[(4S)-2,2-dimethyltetrahydropyran-4-yl]-2-[(1S,8R)-4-(4-fluoro-3,5-dimethyl-phenyl)-3-[3-(4-fluoro-1-methyl-indazol-5-yl)-2-oxo-imidazol-1-yl]-4,5,11-triazatricyclo[6.2.1.02,6]undeca-2,5-diene-11-carbonyl]indol-1-yl]cyclobutyl]-4H-1,2,4-oxadiazol-5-one]	
≥ 10000	Cc1cc(-n2nc3c(c2-n2ccn(-c4ccc5c(cnn5C)c4F)c2=O)[C@@H]2CC[C@H](C3)N2C(=O)c2cc3cc(N4CC(C)(C)C=CC4=O)ccc3n2[C@@]2(c3noc(=O)[nH]3)C[C@@H]2C)cc(C)c1F [Compound 510]	
> 10000	Cc1cc(-n2nc3c(c2-n2ccn(-c4ccc5c(cnn5C)c4F)c2=O)[C@@H]2CC[C@H](C3)N2C(=O)c2cc3c(=O)n(C4CCOC(C)(C)C4)ccc3n2[C@@]2(c3noc(=O)[nH]3)C[C@@H]2C)cc(C)c1F (stereo partly drawn) [Compound 231, 3-[(1S,2S)-1-[5-(2,2-dimethyltetrahydropyran-4-yl)-2-[(1S,8R)-4-(4-fluoro-3,5-dimethyl-phenyl)-3-[3-(4-fluoro-1-methyl-indazol-5-yl)-2-oxo-imidazol-1-yl]-4,5,11-triazatricyclo[6.2.1.02,6]undeca-2,5-diene-11-carbonyl]-4-oxo-pyrrolo[3,2-c]pyridin-1-yl]-2-methyl-cyclopropyl]-4H-1,2,4-oxadiazol-5-one]	
> 10000	Cc1cc(-n2nc3c(c2-c2ncn(-c4ccc5c(cnn5C)c4F)c2C)[C@H](C)N(C(=O)c2cc4cc(N5CCS(=O)(=O)CC5)ccc4n2C2(c4noc(=O)[nH]4)CC2)CC3)cc(C)c1F [Compound 108, 3-[1-[5-(1,1-dioxo-1,4-thiazinan-4-yl)-2-[(4S)-2-(4-fluoro-3,5-dimethyl-phenyl)-3-[1-(4-fluoro-1-methyl-indazol-5-yl)-5-methyl-imidazol-4-yl]-4-methyl-6,7-dihydro-4H-pyrazolo[4,3-c]pyridine-5-carbonyl]indol-1-yl]cyclopropyl]-4H-1,2,4-oxadiazol-5-one]	
907	Cc1cc(-n2nc3c(c2-n2ccn(-c4ccc5c(cnn5C)c4F)c2=O)[C@@H]2CC[C@H](C3)N2C(=O)c2cc3nc([C@H]4CCOC(C)(C)C4)ccc3n2[C@@]2(c3noc(=O)[nH]3)C[C@@H]2C)cc(C)c1F [Compound 217, 3-[(1S,2S)-1-[5-[(4S)-2,2-dimethyltetrahydropyran-4-yl]-2-[(1S,8R)-4-(4-fluoro-3,5-dimethyl-phenyl)-3-[3-(4-fluoro-1-methyl-indazol-5-yl)-2-oxo-imidazol-1-yl]-4,5,11-triazatricyclo[6.2.1.02,6]undeca-2,5-diene-11-carbonyl]pyrrolo[3,2-b]pyridin-1-yl]-2-methyl-cyclopropyl]-4H-1,2,4-oxadiazol-5-one]	
262	Cc1cc(-n2nc3c(c2-n2ccn(-c4ccc5c(cnn5C)c4F)c2=O)[C@@H]2COC[C@H](C3)N2S(=O)(=O)c2cc3cc([C@H]4CCOC(C)(C)C4)ccc3n2[C@@]2(c3noc(=O)[nH]3)C[C@@H]2C)cc(C)c1F [Compound 536, 3-((1S,2S)-1-(5-((S)-2,2-dimethyltetrahydro-2H-pyran-4-yl)-2-(((4R,8S)-3-(3-(4-fluoro-1-methyl-1H-indazol-5-yl)-2-oxo-2,3-dihydro-1H-imidazol-1-yl)-2-(4-fluoro-3,5-dimethylphenyl)-2,4,5,7,8,9-hexahydro-4,8-epiminooxocino [5,4-c]pyrazol-10-yl)sulfonyl)-1H-indol-1-yl)-2-methylcyclopropyl)-1,2,4-oxadiazol-5 (4H)-one]	
785	Cc1cc(-n2nc3c(c2-n2ccn(-c4cc(F)c5c(cnn5C)c4F)c2=O)[C@@H]2CC[C@H](C3)N2C(=O)c2cc3cc([C@H]4CCOC(C)(C)C4)ncc3n2[C@@]2(c3noc(=O)[nH]3)C[C@@H]2C)cc(C)c1F [Compound 236, 3-[(1S,2S)-1-[2-[(1S,8R)-3-[3-(4,7-difluoro-1-methyl-indazol-5-yl)-2-oxo-imidazol-1-yl]-4-(4-fluoro-3,5-dimethyl-phenyl)-4,5,11-triazatricyclo[6.2.1.02,6]undeca-2,5-diene-11-carbonyl]-5-[(4S)-2,2-dimethyltetrahydropyran-4-yl]pyrrolo[2,3-c]pyridin-1-yl]-2-methyl-cyclopropyl]-4H-1,2,4-oxadiazol-5-one]	
197	Cc1cc(-n2nc3c(c2-n2ccn(-c4ccc5c(cnn5C)c4Cl)c2=O)[C@@H]2CC[C@H](C3)N2C(=O)c2cc3cc([C@H]4CCOC(C)(C)C4)ccc3n2[C@@]2(c3noc(=O)[nH]3)C[C@@H]2C)cc(C)c1F [Compound 308, 3-((1S,2S)-1-(2-((4S,7R)-3-(3-(4-chloro-1-methyl-1H-indazol-5-yl)-2-oxo-2,3-dihydro-1H-imidazol-1-yl)-2-(4-fluoro-3,5-dimethylphenyl)-2,4,5,6,7,8-hexahydro-4,7-epiminocyclohepta [c]pyrazole-9-carbonyl)-5-((S)-2,2-dimethyltetrahydro-2H-pyran-4-yl)-1H-indol-1-yl)-2-methylcyclopropyl)-1,2,4-oxadiazol-5(4H)-one]	
12.2	Cc1cc(-n2nc3c(c2-n2ccn(-c4ccn5c(cc(=O)n5C)c4F)c2=O)[C@@H]2CC[C@H](C3)N2C(=O)c2cc3cc([C@H]4CCOC(C)(C)C4)ccc3n2[C@@]2(c3noc(=O)[nH]3)C[C@@H]2C)cc(C)c1F [Compound 429, 3-((1S,2S)-1-(5-((S)-2,2-dimethyltetrahydro-2H-pyran-4-yl)-2-((4S,7R)-3-(3-(4-fluoro-1-methyl-2-oxo-1,2-dihydropyrazolo[1,5-a]pyridin-5-yl)-2-oxo-2,3-dihydro-1H-imidazol-1-yl)-2-(4-fluoro-3,5-dimethylphenyl)-2,4,5,6,7,8-hexahydro-4,7-epiminocyclohepta [c]pyrazole-9-carbonyl)-1H-indol-1-yl)-2-methylcyclopropyl)-1,2,4-oxadiazol-5(4H)-one]	
> 10000	Cc1cc(-n2nc3c(c2-n2ccn(-c4ccc5c(cnn5C)c4F)c2=O)[C@@H]2CC[C@H](C3)N2C(=O)c2cc3nc([C@@H]4CCOC(C)(C)C4)ccc3n2[C@@]2(c3noc(=O)[nH]3)C[C@@H]2C)cc(C)c1F [Compound 218, 3-[(1S,2S)-1-[5-[(4R)-2,2-dimethyltetrahydropyran-4-yl]-2-[(1S,8R)-4-(4-fluoro-3,5-dimethyl-phenyl)-3-[3-(4-fluoro-1-methyl-indazol-5-yl)-2-oxo-imidazol-1-yl]-4,5,11-triazatricyclo[6.2.1.02,6]undeca-2,5-diene-11-carbonyl]pyrrolo[3,2-b]pyridin-1-yl]-2-methyl-cyclopropyl]-4H-1,2,4-oxadiazol-5-one]	
672	Cc1cc(-n2nc3c(c2-n2ccn(-c4ccc5c(cnn5C)c4F)c2=O)[C@@H]2CC[C@H](C3)N2C(=O)c2c(C)c3cc([C@H]4CCOC(C)(C)C4)ccc3n2[C@@]2(c3noc(=O)[nH]3)C[C@@H]2C)cc(C)c1F [Compound 532, 3-[(1S,2S)-1-[5-[(4S)-2,2-dimethyltetrahydropyran-4-yl]-2-[(1S,8R)-4-(4-fluoro-3,5-dimethyl-phenyl)-3-[3-(4-fluoro-1-methyl-indazol-5-yl)-2-oxo-imidazol-1-yl]-4,5,11-triazatricyclo[6.2.1.02,6]undeca-2,5-diene-11-carbonyl]-3-methyl-indol-1-yl]-2-methyl-cyclopropyl]-4H-1,2,4-oxadiazol-5-one]	

SMILES	EC50 [1] [nM]	other results
Cc1cc(-n2nc3c(c2-n2ccn(-c4ccc5c(cnn5C)c4F)c2=O)[C@H]2CC[C@@H](C3)N2C(=O)c2cc3cc([C@H]4CCOC5(CC5)C4)ccc3n2[C@@]2(c3noc(=O)[nH]3)C[C@@H]2C)cc(C)c1F [Compound 411, 3-((1S,2S)-1-(2-((4R,7S)-3-(3-(4-fluoro-1-methyl-1H-indazol-5-yl)-2-oxo-2,3-dihydro-1H-imidazol-1-yl)-2-(4-fluoro-3,5-dimethylphenyl)-2,4,5,6,7,8-hexahydro-4,7-epiminocyclohepta [c]pyrazole-9-carbonyl)-5-((S)-4-oxaspiro[2.5]octan-7-yl)-1H-indol-1-yl)-2-methylcyclopropyl)-1,2,4-oxadiazol-5 (4H)-one]	652	EC50 [2]: 652 nM; potency (text to Table 1d, bridge atoms configured out of the plane or toward the reader): little or no potency
Cc1cc(-n2nc3c(c2-n2ccn(-c4ccc5c(cnn5C)c4F)c2=O)[C@@H]2CCC[C@H](C3)N2C(=O)c2cc3cc([C@H]4CCOC(C)(C)C4)ccc3n2[C@@]2(c3noc(=O)[nH]3)C[C@@H]2C)cc(C)c1F [Compound 433, 3-((1S,2S)-1-(5-((S)-2,2-dimethyltetrahydro-2H-pyran-4-yl)-2-((4S,8R)-3-(3-(4-fluoro-1-methyl-1H-indazol-5-yl)-2-oxo-2,3-dihydro-1H-imidazol-1-yl)-2-(4-fluoro-3,5-dimethylphenyl)-4,5,6,7,8,9-hexahydro-2H-4,8-epiminocycloocta [c]pyrazole-10-carbonyl)-1H-indol-1-yl)-2-methylcyclopropyl)-1,2,4-oxadiazol-5 (4H)-one]	30	EC50 Ratio (Table 1d, potency ratio of stereoisomer pair (less potent / more potent isomer)): >333; EC50 [2]: 30 nM; EC50 (text to Table 1d, bridge atoms configured into the plane or away from the reader, read-out: potency (EC50)): < 1000 nM
